Eight molecules from patent publication US5523314A, “Compounds useful as hypoglycemic agents and for treating Alzheimer's disease” (priority 1994, dated 1996) can be followed below.

The first assay concerns blood glucose level. As to the kind of experiment: Hypoglycemic activity in obese diabetic mice (Table 1). The format is in vivo, male viable yellow obese-diabetic mice. As to conditions: Mus musculus, ip, 2 h, 5 mg/kg, intraperitoneal, 2 hrs; read-out: Percent of Initial Blood Glucose Level After 2 hrs. As for the experimental part: The hypoglycemic activity of the compounds of the present invention was determined by testing the efficacy of the compounds in vivo in male viable yellow obese-diabetic mice. The test procedure is described in detail below.
Test formulations were prepared by dissolving the test compound in a saline solution containing 2% Emulphor (a polyoxyethylated vegetable oil surfactant from GAP Corp.) to provide the dose level desired. Each test formulation was administered to six viable yellow obese-diabetic mice intraperitoneally at the beginning of the experiment. Blood glucose levels were determined immediately before the first dose and at 2 and 4 hours thereafter using glucose oxidase. A mean was taken of the 6 values obtained before the first dose and at the 2 and 4 hour intervals. In Table 1, Column 1 provides the example number of the test compound, Column 2 provides the dose level of compound tested, and Columns 3 and 4 provide a measurement of the test animal's blood glucose level 2 and 4 hours after test compound administration, respectively, as a percentage of the test animal' s pre-administration blood glucose level.
On to `CCCCOc1ccc(C=C2SC(=S)NC2=O)cc1OC` [Example 41, 5-[(3-methoxy-4-butoxyphenyl)methylene]-2-thioxo-4-thiazolidinone], for which the response vs control in vivo at 5 mg/kg came out at 93 ± 10%.

Still in this assay, the particulars now being: Mus musculus, ip, 2 h, 10 mg/kg, intraperitoneal, 2 hrs; read-out: Percent of Initial Blood Glucose Level After 2 hrs.
On to `CCCCOc1ccc(C=C2SC(=S)NC2=O)cc1OC` [Example 41, 5-[(3-methoxy-4-butoxyphenyl)methylene]-2-thioxo-4-thiazolidinone], for which the response vs control in vivo at 10 mg/kg was 80 ± 7%.

The same assay, now with this note: Mus musculus, ip, 2 h, 25 mg/kg, intraperitoneal, 2 hrs; read-out: Percent of Initial Blood Glucose Level After 2 hrs.
On to `CCOc1ccc(C=C2SC(=S)NC2=O)cc1OC` [Example 48, 5-[(3-methoxy-4-ethoxyphenyl)methylene]-2-thioxo-4-thiazolidinone], for which the response vs control in vivo at 25 mg/kg came out at 87 ± 4%.

The same assay, now with this note: Mus musculus, ip, 2 h, 50 mg/kg, intraperitoneal, 2 hrs; read-out: Percent of Initial Blood Glucose Level After 2 hrs.
Regarding `O=C1NC(=S)SC1=Cc1ccco1` [Example 15, 5-[(2-furanyl)methylene]-2-thioxo-4-thiazolidinone], the response vs control in vivo at 50 mg/kg was 73 ± 5%.

Regarding `O=C1NC(=S)SC1=Cc1ccncc1` [Example 16, 5-[(4-pyridyl)methylene]-2-thioxo-4-thiazolidinone], the response vs control in vivo at 50 mg/kg amounted to 94 ± 8%.

Consider `COc1cc(C=C2SC(=S)NC2=O)cc(OC)c1OC` [Example 17, 5-[(3,4,5-trimethoxyphenyl)methylene]-2-thioxo-4-thiazolidinone], for which the response vs control in vivo at 50 mg/kg was determined as 88 ± 8%.

Consider `COc1cccc(C=C2SC(=S)NC2=O)c1OC` [Example 24, 5-[(2,3-dimethoxyphenyl)methylene]-2-thioxo-4-thiazolidinone], for which the response vs control in vivo at 50 mg/kg amounted to 78 ± 4%.

With `COc1ccccc1C=C1SC(=S)NC1=O` [Example 26, 5-[(2-methoxyphenyl)methylene]-2-thioxo-4-thiazolidinone], the response vs control in vivo at 50 mg/kg was 80 ± 4%.

Turning to `CC(C)(C)c1cc(C=C2SC(=S)NC2=O)cc(C(C)(C)C)c1O` [Example 28, 5-[[3,5-bis(1,1-dimethylethyl)-4-hydroxyphenyl]methylene]-2-thioxo-4-thiazolidinone], the response vs control in vivo at 50 mg/kg came out at 83 ± 9%.

Regarding `CCCCOc1ccc(C=C2SC(=S)NC2=O)cc1OC` [Example 41, 5-[(3-methoxy-4-butoxyphenyl)methylene]-2-thioxo-4-thiazolidinone], the response vs control in vivo at 50 mg/kg was found to be 61 ± 3%.

As to `CCOc1ccc(C=C2SC(=S)NC2=O)cc1OC` [Example 48, 5-[(3-methoxy-4-ethoxyphenyl)methylene]-2-thioxo-4-thiazolidinone], the response vs control in vivo at 50 mg/kg was found to be 70 ± 3%.

Staying with this assay, now noted: Mus musculus, ip, 4 h, 25 mg/kg, intraperitoneal, 4 hrs; read-out: Percent of Initial Blood Glucose Level After 4 hrs.
Consider `CCOc1ccc(C=C2SC(=S)NC2=O)cc1OC` [Example 48, 5-[(3-methoxy-4-ethoxyphenyl)methylene]-2-thioxo-4-thiazolidinone], for which the response vs control in vivo at 25 mg/kg was 81 ± 5%.

The assay is the same for the next values; noted with them: Mus musculus, ip, 4 h, 50 mg/kg, intraperitoneal, 4 hrs; read-out: Percent of Initial Blood Glucose Level After 4 hrs.
Consider `O=C1NC(=S)SC1=Cc1ccco1` [Example 15, 5-[(2-furanyl)methylene]-2-thioxo-4-thiazolidinone], for which the response vs control in vivo at 50 mg/kg was determined as 62 ± 4%.

Regarding `O=C1NC(=S)SC1=Cc1ccncc1` [Example 16, 5-[(4-pyridyl)methylene]-2-thioxo-4-thiazolidinone], the response vs control in vivo at 50 mg/kg came to 96 ± 9%.

As to `COc1cc(C=C2SC(=S)NC2=O)cc(OC)c1OC` [Example 17, 5-[(3,4,5-trimethoxyphenyl)methylene]-2-thioxo-4-thiazolidinone], the response vs control in vivo at 50 mg/kg turned out to be 89 ± 10%.

`COc1cccc(C=C2SC(=S)NC2=O)c1OC` [Example 24, 5-[(2,3-dimethoxyphenyl)methylene]-2-thioxo-4-thiazolidinone]: the response vs control in vivo at 50 mg/kg was found to be 80 ± 5%.

For `COc1ccccc1C=C1SC(=S)NC1=O` [Example 26, 5-[(2-methoxyphenyl)methylene]-2-thioxo-4-thiazolidinone], the response vs control in vivo at 50 mg/kg stood at 75 ± 2%.

Turning to `CC(C)(C)c1cc(C=C2SC(=S)NC2=O)cc(C(C)(C)C)c1O` [Example 28, 5-[[3,5-bis(1,1-dimethylethyl)-4-hydroxyphenyl]methylene]-2-thioxo-4-thiazolidinone], the response vs control in vivo at 50 mg/kg is 79 ± 7%.

`CCOc1ccc(C=C2SC(=S)NC2=O)cc1OC` [Example 48, 5-[(3-methoxy-4-ethoxyphenyl)methylene]-2-thioxo-4-thiazolidinone]: the response vs control in vivo at 50 mg/kg worked out at 65 ± 3%.

The next assay relates to blood glucose level. Nature of the assay: Hypoglycemic activity in normal fed rats (Table 2). As to conditions: Rattus norvegicus; 160 mg/kg, oral, 3 hrs; read-out: Percent of Initial Blood Glucose Level After 3 hrs. The format is in vivo, male Sprague Dawley rats. As for the experimental part: The procedure used in this test system is described below.
The desired dose level of each test formulation was administered to four rats by oral […] at the beginning of the experiment. Blood glucose levels were determined immediately before the first dose and at 3 and 5 hours thereafter by an enzymatic procedure employing glucose oxidase and peroxidase coupled with a chromogenic oxygen acceptor. A mean was taken of the 4 values obtained before the first dose and at the 3 and 5 hour intervals.
For `CCCCOc1ccc(C=C2SC(=S)NC2=O)cc1OC` [Example 41, 5-[(3-methoxy-4-butoxyphenyl)methylene]-2-thioxo-4-thiazolidinone], the response vs control in vivo at 160 mg/kg was 76%.

Staying with this assay, now noted: Rattus norvegicus; 160 mg/kg, oral, 5 hrs; read-out: Percent of Initial Blood Glucose Level After 5 hrs.
Turning to `CCCCOc1ccc(C=C2SC(=S)NC2=O)cc1OC` [Example 41, 5-[(3-methoxy-4-butoxyphenyl)methylene]-2-thioxo-4-thiazolidinone], the response vs control in vivo at 160 mg/kg came out at 67%.

Still in this assay, the particulars now being: Rattus norvegicus; 167 mg/kg, oral, 3 hrs; read-out: Percent of Initial Blood Glucose Level After 3 hrs.
For `O=C1NC(=S)SC1=Cc1ccco1` [Example 15, 5-[(2-furanyl)methylene]-2-thioxo-4-thiazolidinone], the response vs control in vivo at 167 mg/kg is 84%.

As to `CCOc1ccc(C=C2SC(=S)NC2=O)cc1OC` [Example 48, 5-[(3-methoxy-4-ethoxyphenyl)methylene]-2-thioxo-4-thiazolidinone], the response vs control in vivo at 167 mg/kg was 87%.

The assay is the same for the next values; noted with them: Rattus norvegicus; 167 mg/kg, oral, 5 hrs; read-out: Percent of Initial Blood Glucose Level After 5 hrs.
Consider `O=C1NC(=S)SC1=Cc1ccco1` [Example 15, 5-[(2-furanyl)methylene]-2-thioxo-4-thiazolidinone], for which the response vs control in vivo at 167 mg/kg amounted to 87%.

Consider `CCOc1ccc(C=C2SC(=S)NC2=O)cc1OC` [Example 48, 5-[(3-methoxy-4-ethoxyphenyl)methylene]-2-thioxo-4-thiazolidinone], for which the response vs control in vivo at 167 mg/kg is 81%.

The assay is the same for the next values; noted with them: Rattus norvegicus; 200 mg/kg, oral, 3 hrs; read-out: Percent of Initial Blood Glucose Level After 3 hrs.
As for `O=C1NC(=S)SC1=Cc1ccncc1` [Example 16, 5-[(4-pyridyl)methylene]-2-thioxo-4-thiazolidinone], the response vs control in vivo at 200 mg/kg stood at 92%.

For the molecule `COc1cc(C=C2SC(=S)NC2=O)cc(OC)c1OC` [Example 17, 5-[(3,4,5-trimethoxyphenyl)methylene]-2-thioxo-4-thiazolidinone], the response vs control in vivo at 200 mg/kg stood at 78%.

Consider `COc1cccc(C=C2SC(=S)NC2=O)c1OC` [Example 24, 5-[(2,3-dimethoxyphenyl)methylene]-2-thioxo-4-thiazolidinone], for which the response vs control in vivo at 200 mg/kg was found to be 100%.

Turning to `COc1ccccc1C=C1SC(=S)NC1=O` [Example 26, 5-[(2-methoxyphenyl)methylene]-2-thioxo-4-thiazolidinone], the response vs control in vivo at 200 mg/kg worked out at 100%.

Still in this assay, the particulars now being: Rattus norvegicus; 200 mg/kg, oral, 5 hrs; read-out: Percent of Initial Blood Glucose Level After 5 hrs.
Consider `O=C1NC(=S)SC1=Cc1ccncc1` [Example 16, 5-[(4-pyridyl)methylene]-2-thioxo-4-thiazolidinone], for which the response vs control in vivo at 200 mg/kg came out at 79%.

As to `COc1cc(C=C2SC(=S)NC2=O)cc(OC)c1OC` [Example 17, 5-[(3,4,5-trimethoxyphenyl)methylene]-2-thioxo-4-thiazolidinone], the response vs control in vivo at 200 mg/kg came out at 68%.

For the molecule `COc1cccc(C=C2SC(=S)NC2=O)c1OC` [Example 24, 5-[(2,3-dimethoxyphenyl)methylene]-2-thioxo-4-thiazolidinone], the response vs control in vivo at 200 mg/kg turned out to be 100%.

Take `COc1ccccc1C=C1SC(=S)NC1=O` [Example 26, 5-[(2-methoxyphenyl)methylene]-2-thioxo-4-thiazolidinone]: the response vs control in vivo at 200 mg/kg was determined as 100%.

In the next assay the target is T1, Human liver cathepsin D (Homo sapiens, UniProt P07339).
T1 construct: purchased Athens Research and Technology, Athens, Ga; host or cells: human liver
T1 sequence (P07339 169-412 limits assumed): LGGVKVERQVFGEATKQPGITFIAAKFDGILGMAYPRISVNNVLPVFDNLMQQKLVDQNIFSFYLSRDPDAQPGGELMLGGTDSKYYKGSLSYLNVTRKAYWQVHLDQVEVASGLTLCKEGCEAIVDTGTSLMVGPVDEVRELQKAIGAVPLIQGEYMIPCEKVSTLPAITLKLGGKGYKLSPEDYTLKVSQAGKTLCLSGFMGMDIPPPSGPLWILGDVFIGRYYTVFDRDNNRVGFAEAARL
T1 sequence (P07339 65-161 limits assumed): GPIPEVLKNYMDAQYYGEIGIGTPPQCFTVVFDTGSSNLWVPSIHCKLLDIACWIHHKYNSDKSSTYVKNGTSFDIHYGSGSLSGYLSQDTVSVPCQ
Nature of the assay: Cathepsin D inhibition, fluorometric assay (Tables 5 and 6). The format is biochemical.
Settings: not given
The method, then: Human liver cathepsin D (Athens Research and Technology, Athens, Ga.) was diluted in assay buffer, 200 mM NaOAc, pH 4.5, 150 mM NaCl to 500 ng/mL and then 100 μL of this cathepsin D solution was added to each well of a 96 well plate with the exception of control wells which received just 100 μL of assay buffer. […] Blank and enzyme control wells each received 5 μL of the DMSO vehicle.
After incubation at 37° C. for 30 minutes, cathepsin D activity was terminated by the addition of 100 μL per well of 400 mU/mL microsomal leucine aminopeptidase (EC 3.4.11.2, Sigma, St. Louis, Mo.) in 1M Tris-HCl, pH 8.0.
Following a two hour incubation at 37° C., to allow the aminopeptidase to release the fluorophore, 7-amido-4-methylcoumarin (AMC) from the products of cathepsin D cleavage, the plates were again analyzed in the fluorometer. In order to check for potential false positives, i.e., inhibitors of microsomal leucine aminopeptidase, residual aminopeptidase activity was monitored directly in each well by the addition of 20 μL/well of 2.5 mM Leu-pNA (Bachem Biosciences, Philadelphia, Pa.) in 10% DMSO.
Take `CC(C)(C)c1cc(C=C2SC(=S)NC2=O)cc(C(C)(C)C)c1O` [Example 28, 5-[[3,5-bis(1,1-dimethylethyl)-4-hydroxyphenyl]methylene]-2-thioxo-4-thiazolidinone]: inhibition was half-maximal at 3.1 µM (IC50).
